Reference: patent US9868758B2, “Betulinic proline imidazole derivatives as HIV inhibitors” (HETERO LABS LIMITED, priority 2014, dated 2018)

Tests used:
[1] = Single dose oral pharmacokinetic study; design: species or system mice; settings: mouse, in vivo, po, 30 mg/kg
Description: The test item was administered through oral route to animals (rat/mice) at 30 mg/kg dose in a suitable vehicle at 10 ml/kg dose volume. Blood samples (˜50 uL at each time point) were collected from retro-orbital plexus using K3 EDTA as anticoagulant in eppendorf tubes at defined time intervals under light ether anesthesia. The samples were centrifuged at 3500×g to separate plasma and stored at −80° C. until analysis.
Sample analysis: Test samples were analyzed using LC-MS-MS after developing fit-for-purpose method for each of test compound.

[2] = Cyto-toxicity, MTT assay; type: cell-based; settings: read-out: Cytotoxicity % viability
Description: On day 1 calculate the number of cells required for the assay and seed 3×10^4 cells in 200 μl per well. Weigh the compound and dissolve it in DMSO to get 10 mM stock which is further diluted to 3 mM and 1 mM. The drugs from these stocks were added to plate to get final concentration of 100 μM, 30 μM and 10 μM. […] Incubate for 4 days in 5% CO2 incubator at 37° C. On day 4, 100 μl of medium was removed from each well without disturbing the cells. Add 10 μl of MTT reagent and incubate for 4 hours at 5% CO2 incubator at 37° C. for formation of crystals. Add 200 μl of 0.1N acidic isopropanol to dissolve the crystals and read the plate at 590 nm.

[3] = test system: HIV-1 strains, for e.g., 92HT599; experiment: Antiviral activity: p24 estimation in HIV-1 infected MT-2 cells; type: cell-based; settings: Human immunodeficiency virus 1, MT2, MT-2 cells; for inhibition at 0.01 µM / inhibition at 0.1 µM / inhibition at 1 µM: p24, ~96 hours; for IC50: p24, read-out: Antiviral activity IC50
Description: MT-2 cells were infected with required number of TCID50's of HIV-1 strains, for e.g., 92HT599. The infected cells were plated at the concentration of 30,000 cells per well in a 96 well plate. Test compound was added to the 96 well plate with the final concentration of DMSO (vehicle—not more than 1%). The plates are then incubated in a CO2 incubator for ˜96 hours (˜4 days) for viral infection. At the end of incubation period an aliquot from each well was taken for p24 estimation. The quantitation of p24 is an estimated index for antiviral activity of the compound. Percent inhibition was calculated with reference to control values (vehicle controls).
p-24 estimation was carried out using Advance biosciences kit as per the procedure detailed by supplier.

| SMILES | AUC(0-t) [1] [µg·h/mL] | Cmax [1] [ng/mL] | viability at 4 days, 0.01 µM [2] [%] | viability at 4 days, 0.1 µM [2] [%] | viability at 4 days, 1 µM [2] [%] | inhibition at 0.01 µM [3] [%] | inhibition at 0.1 µM [3] [%] | inhibition at 1 µM [3] [%] | IC50 [3] [nM] | viability at 4 days, 10 µM [2] [%] | viability at 4 days, 30 µM [2] [%] | viability at 4 days, 100 µM [2] [%] |
| --- | --- | --- | --- | --- | --- | --- | --- | --- | --- | --- | --- | --- |
| C=C(C)[C@@H]1CC[C@]2(C(=O)N3CCC[C@H]3c3nc4ccccc4n3CCN3CCCC3)CC[C@]3(C)[C@H](CC[C@@H]4[C@@]5(C)CC[C@H](OC(=O)[C@H]6C[C@@H](C(=O)O)C6(C)C)C(C)(C)[C@@H]5CC[C@]43C)[C@@H]12 [Compound 30, (1R,3S)-2,2-dimethyl-3-((((1R,3aS,5aR,5bR,7aR,9S,11aR,11bR,13aR,13bR)-5a,5b,8,8,11a-pentamethyl-1-(prop-1-en-2-yl)-3a-((S)-2-(1-(2-(pyrrolidin-1-yl)ethyl)-1H-benzo[d]imidazol-2-yl)pyrrolidine-1-carbonyl)icosahydro-1H-cyclopenta[a]chrysen-9-yl)oxy)carbonyl)cyclobutane-1-carboxylic acid] | 546 | 14800 | 33 | 3 | 5 | 71 | 100 | 100 | 10.2 | – | – | – |
| C=C(C)[C@@H]1CC[C@]2(C(=O)N3C[C@H](OCCOC)C[C@H]3c3nc(-c4ccccc4)cn3CCN3CCCC3)CC[C@]3(C)[C@H](CC[C@@H]4[C@@]5(C)CC[C@H](OC(=O)[C@H]6C[C@@H](C(=O)O)C6(C)C)C(C)(C)[C@@H]5CC[C@]43C)[C@@H]12 [Compound 27, (1R,3S)-3-((((1R,3aS,5aR,5bR,7aR,9S,11aR,11bR,13aR,13bR)-3a-((2S,4R)-4-(2-methoxyethoxy)-2-(4-phenyl-1-(2-(pyrrolidin-1-yl)ethyl)-1H-imidazol-2-yl)pyrrolidine-1-carbonyl)-5a,5b,8,8,11a-pentamethyl-1-(prop-1-en-2-yl)icosahydro-1H-cyclopenta[a]chrysen-9-yl)oxy)carbonyl)-2,2-dimethylcyclobutane-1-carboxylic acid] | 355 | 10900 | 60 | 24 | 8 | 0 | 100 | 100 | 34 | – | – | – |
| C=C(C)[C@@H]1CC[C@]2(C(=O)N3CCC[C@H]3c3nc(-c4cccc(F)c4)cn3CCN(C)C)CC[C@]3(C)[C@H](CC[C@@H]4[C@@]5(C)CC[C@H](OC(=O)[C@H]6C[C@@H](C(=O)O)C6(C)C)C(C)(C)[C@@H]5CC[C@]43C)[C@@H]12 [Compound 12, (1R,3S)-3-((((1R,3aS,5aR,5bR,7aR,9S,11aR,11bR,13aR,13bR)-3a-((S)-2-(1-(2-(dimethylamino)ethyl)-4-(3-fluorophenyl)-1H-imidazol-2-yl)pyrrolidine-1-carbonyl)-5a,5b,8,8,11a-pentamethyl-1-(prop-1-en-2-yl)icosahydro-1H-cyclopenta[a]chrysen-9-yl)oxy)carbonyl)-2,2-dimethyl cyclobutane-1-carboxylic acid] | – | – | – | – | – | 24 | 44 | 99 | – | 42 | 31 | 5 |
| C=C(C)[C@@H]1CC[C@]2(C(=O)N3CCC[C@H]3c3nc4ccccc4n3CCN(C)C)CC[C@]3(C)[C@H](CC[C@@H]4[C@@]5(C)CC[C@H](OC(=O)[C@H]6C[C@@H](C(=O)O)C6(C)C)C(C)(C)[C@@H]5CC[C@]43C)[C@@H]12 [Compound 29, (1R,3S)-3-((((1R,3aS,5aR,5bR,7aR,9S,11aR,11bR,13aR,13bR)-3a-((S)-2-(1-(2-(dimethylamino)ethyl)-1H-benzo[d]imidazol-2-yl)pyrrolidine-1-carbonyl)-5a,5b,8,8,11a-pentamethyl-1-(prop-1-en-2-yl)icosahydro-1H-cyclopenta[a]chrysen-9-yl)oxy)carbonyl)-2,2-dimethylcyclobutane-1-carboxylic acid] | 491 | 14900 | 31 | 1 | 5 | 0 | 100 | 100 | 9.76 | – | – | – |
| C=C(C)[C@@H]1CC[C@]2(C(=O)N3CCC[C@H]3c3nc(-c4ccccc4)cn3CCP(=O)(O)O)CC[C@]3(C)[C@H](CC[C@@H]4[C@@]5(C)CC[C@H](OC(=O)[C@H]6C[C@@H](C(=O)O)C6(C)C)C(C)(C)[C@@H]5CC[C@]43C)[C@@H]12 [Compound 23, (1R,3S)-2,2-dimethyl-3-((((1R,3aS,5aR,5bR,7aR,9S,11aR,11bR,13aR,13bR)-5a,5b,8,8,11a-pentamethyl-3a-((S)-2-(4-phenyl-1-(2-phosphonoethyl)-1H-imidazol-2-yl)pyrrolidine-1-carbonyl)-1-(prop-1-en-2-yl)icosahydro-1H-cyclopenta[a]chrysen-9-yl)oxy)carbonyl)cyclo butane-1-carboxylic acid] | – | – | – | – | – | 24 | 21 | 66 | – | 88 | 77 | 66 |
| C=C(C)[C@@H]1CC[C@]2(C(=O)N3C[C@H](OCCOC)C[C@H]3c3nc(-c4ccccc4)cn3CCC(C)C)CC[C@]3(C)[C@H](CC[C@@H]4[C@@]5(C)CC[C@H](OC(=O)[C@H]6C[C@@H](C(=O)O)C6(C)C)C(C)(C)[C@@H]5CC[C@]43C)[C@@H]12 [Compound 26, (1R,3S)-3-((((1R,3aS,5aR,5bR,7aR,9S,11aR,11bR,13aR,13bR)-3a-((2S,4R)-2-(1-isopentyl-4-phenyl-1H-imidazol-2-yl)-4-(2-methoxyethoxy)pyrrolidine-1-carbonyl)-5a,5b,8,8,11a-pentamethyl-1-(prop-1-en-2-yl)icosahydro-1H-cyclopenta[a]chrysen-9-yl)oxy)carbonyl)-2,2-dimethylcyclobutane-1-carboxylic acid] | – | – | – | – | – | 0 | 15 | 99 | – | 77 | 54 | 9 |
| C=C(C)[C@@H]1CC[C@]2(C(=O)N3C[C@H](OCCOC)C[C@H]3c3nc(-c4cccc(F)c4)cn3CCN3CCCC3)CC[C@]3(C)[C@H](CC[C@@H]4[C@@]5(C)CC[C@H](OC(=O)[C@H]6C[C@@H](C(=O)O)C6(C)C)C(C)(C)[C@@H]5CC[C@]43C)[C@@H]12 [Compound 28, (1R,3S)-3-((((1R,3aS,5aR,5bR,7aR,9S,11aR,11bR,13aR,13bR)-3a-((2S,4R)-2-(4-(3-fluorophenyl)-1-(2-(pyrrolidin-1-yl)ethyl)-1H-imidazol-2-yl)-4-(2-methoxyethoxy)pyrrolidine-1-carbonyl)-5a,5b,8,8,11a-pentamethyl-1-(prop-1-en-2-yl)icosahydro-1H-cyclopenta[a]chrysen-9-yl)oxy)carbonyl)-2,2-dimethylcyclobutane-1-carboxylic acid] | 293 | 7300 | 65 | 19 | 6 | 13 | 98 | 100 | 39.6 | – | – | – |
